{
  "source": "patent US7312358B2",
  "about": "“Pharmaceutically active sulfanilide derivatives” (Laboratoires Serono SA, priority 2000, dated 2007)",
  "key": {"hOT receptor": {"target": "T1, hOT receptor (Homo sapiens, UniProt P30559)", "T1 construct": "expressed in transfected cells; host or cells: HEK293EBNA cells (membranes)", "T1 sequence (P30559 1-389)": "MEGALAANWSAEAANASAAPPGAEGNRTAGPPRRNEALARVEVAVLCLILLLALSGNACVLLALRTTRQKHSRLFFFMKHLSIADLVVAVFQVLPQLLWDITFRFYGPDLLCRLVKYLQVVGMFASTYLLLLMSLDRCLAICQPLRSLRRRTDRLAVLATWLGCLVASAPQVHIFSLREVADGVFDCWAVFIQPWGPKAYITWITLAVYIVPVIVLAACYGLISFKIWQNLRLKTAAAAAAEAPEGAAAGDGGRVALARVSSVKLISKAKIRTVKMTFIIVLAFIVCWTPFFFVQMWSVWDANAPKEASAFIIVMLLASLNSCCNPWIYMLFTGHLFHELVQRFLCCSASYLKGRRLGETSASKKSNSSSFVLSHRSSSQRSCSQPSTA", "test": "In vitro competition binding assay on hOT receptor with scintillating proximity assay", "conditions": "membranes from HEK293EBNA cells expressing hOT receptor; radiolabel [125I]-OVTA; SPA; read-out: Binding Affinity Human OT-R Ki", "procedure,_shortened": "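SPA competition binding using HEK293EBNA membranes expressing hOT receptor (2-4 μg) with WGA beads and 0.2 nM [125I]-OVTA in 50 mM Tris-HCl pH 7.4, 5 mM MgCl2, 0.1% BSA, 30 min at room temperature. Non-specific binding with 1 μM oxytocin; compounds at 10 pM–30 μM; IC50 by nonlinear curve fitting.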"}, "[1]": {"system": "oxytocin-induced uterine contractions in the rat", "test": "In vivo model for inhibition of uterine contractions", "conditions": "anaesthetised DES-treated non-pregnant female rat, route not given", "experimental": "f) In Vivo Model for Inhibition of Uterine Contractions\nThe assay intends to show the biological effect of tested compounds in an in vivo model of preterm labor, premature birth.\nNon-pregnant Charles River CD(SD) BR female rats (9-10 weeks old, 200-250 g) were treated at 18 and 24 hours before the experiment with 250 μg/kg, i.p. diethylstilbestrol (DES). For the assay, the animal was anaesthetised by urethane (1.75 g/kg, i.p.) and placed on an homeothennic operating table. The trachea was isolated and cannulated with a suitable polyethylene (PE) tubing. A midline incision at the hypogastrium level was made and one uterine horn exposed, its cephalic end cannulated with a PE240 tubing and, after filling the internal cavity with 0.2 ml of sterile physiological saline, connected to a “Gemini” amplifying/recording system via a P231D Gould Statham pressure transducer. For the i.v. route of administration of the test compounds, one jugular vein was isolated and cannulated with a PE60 tubing connected to a butterfly needle to allow the administration by a dispensing syringe. In the case of intraduodenal administration of the test compounds, the duodenum was isolated and similarly cannulated through a small incision in its wall. One carotid artery was also isolated and cannulated with PE60 catheter and connected to a suitable syringe for blood sample collection (see below). After a stabilization period, the same dose of oxytocin was repeatedly injected intravenously at 30-min intervals. […] Further injections of the same dose of oxytocin were then made for a suitable time after treatment to assess inhibitory effects of the compounds under study. The contractile response of the uterus to oxytocin was quantified by measuring the intra-uterine pressure and the number of contractions. The effect of the reference and test compounds were evaluated by comparing pre- and post-treatment pressure values. In addition, at 2, 30, 90 and 210 minutes after test compound administration, a 0.5-ml blood sample was withdrawn from the cannulated carotid artery of each experimental animal. Plasma was obtained by standard laboratory procedure and the resulting samples were stored at −20° C.\nThe activities of the sulfanilide derivatives claimed in the Formula I were assessed using the above described in vivo biological assay. The values refer to the capacity of the example compound according to Formula I to effectively antagonize oxytocin-induced uterine contractions in the rat."}},
  "data": [
    {"smiles": "CCOc1ccc(S(=O)(=O)N(CC(=O)N/N=C2/C(=O)Nc3ccccc32)c2ccc(C)cc2)cc1", "note": "[Example 5, 4-ethoxy-N-(4-methylphenyl)-N-{2-oxo-2-[2-(2-oxo-1,2-dihydro-3H-indol-3-ylidene)hydrazino]ethyl}benzenesulfonamide]", "values": [
      {"measurement": "Ki", "setting": "hOT receptor", "result": 17.3, "unit": "nM"},
      {"measurement": "% Reduction of Uterine Contraction", "setting": "[1]; dose 5 mg/kg", "result": "23.9 ± 4.0", "unit": "%"},
      {"measurement": "% Reduction of Uterine Contraction", "setting": "[1]; dose 7.5 mg/kg", "result": "40.3 ± 4.2", "unit": "%"},
      {"measurement": "% Reduction of Uterine Contraction", "setting": "[1]; dose 10 mg/kg", "result": "62.6 ± 5.0", "unit": "%"}
    ]}
  ]
}
